{"source": "patent US12065444B2", "about": "“Substituted tetrazolo[1,5-a]pyrazines and tetrazolo[1,5-c]pyrimidines as adenosine receptor antagonists” (Crossignal Therapeutics, Inc., priority 2021, dated 2024)", "target": "human adenosine A2a receptor (Homo sapiens, UniProt P29274)", "sequence (P29274 whole entry)": "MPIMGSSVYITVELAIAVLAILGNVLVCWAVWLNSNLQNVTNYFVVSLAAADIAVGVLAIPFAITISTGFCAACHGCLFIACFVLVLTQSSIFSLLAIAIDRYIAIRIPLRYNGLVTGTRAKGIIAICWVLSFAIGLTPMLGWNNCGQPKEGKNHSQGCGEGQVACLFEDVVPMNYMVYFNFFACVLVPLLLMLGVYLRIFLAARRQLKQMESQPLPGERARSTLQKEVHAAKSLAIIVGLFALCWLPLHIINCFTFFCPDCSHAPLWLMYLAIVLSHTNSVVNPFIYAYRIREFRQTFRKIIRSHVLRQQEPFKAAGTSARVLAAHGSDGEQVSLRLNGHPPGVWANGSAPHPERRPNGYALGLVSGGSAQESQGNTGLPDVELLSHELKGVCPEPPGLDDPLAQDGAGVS", "experiment": "Adenosine A2a receptor whole cell cyclic AMP assay", "settings": "for IC50: HEK293 cells stably expressing human A2a, 1 hour compound treatment; for inhibition at 10 µM: HEK293, 1 h, read-out: A2a @ 100 μM Adenosine (A2a cAMP IC50)", "key": {"[1]": {"settings": "A2a @ 1 μM Adenosine (A2a cAMP IC50), 1 μM adenosine"}, "[2]": {"settings": "A2a @ 100 μM Adenosine (A2a cAMP IC50), 100 μM adenosine"}}}
{"compound": "Cn1cc(-c2c(-c3ccc(F)cc3)nc(N)n3nnnc23)ccc1=O", "note": "[1-29, 5-(5-amino-7-(4-fluorophenyl)tetrazolo[1,5-c]pyrimidin-8-yl)-1-methylpyridin-2(1H)-one]", "values": [{"measurement": "IC50", "setting": "[1]", "value": "0.1 to 1", "unit": "µM"}]}
{"compound": "Nc1nc(-c2ccc(F)cc2)c(-c2cc(F)c3ncccc3c2)n2nnnc12", "note": "[1-19, 6-(4-fluorophenyl)-5-(8-fluoroquinolin-6-yl)tetrazolo[1,5-a]pyrazin-8-amine]", "values": [{"measurement": "IC50", "setting": "[1]", "value": "0.1 to 1", "unit": "µM"}, {"measurement": "IC50", "setting": "[2]", "value": "> 1", "unit": "µM"}]}
{"compound": "Nc1nc(-c2ccc(F)cc2)c(-c2ccc3nc[nH]c3c2)c2nnnn12", "note": "[1-42, 8-(1H-benzo[d]imidazol-6-yl)-7-(4-fluorophenyl)tetrazolo[1,5-c]pyrimidin-5-amine]", "values": [{"measurement": "IC50", "setting": "[1]", "value": "0.1 to 1", "unit": "µM"}]}
{"compound": "Cc1cnc2ccc(-c3c(-c4ccc(C#N)cc4)nc(N)c4nnnn34)cn12", "note": "[1-51, 4-(8-amino-5-(3-methylimidazo[1,2-a]pyridin-6-yl)tetrazolo[1,5-a]pyrazin-6-yl)benzonitrile]", "values": [{"measurement": "IC50", "setting": "[1]", "value": "0.1 to 1", "unit": "µM"}]}
{"compound": "Cn1cnc2ccc(-c3c(-c4ccc(F)cc4)nc(N)n4nnnc34)cc21", "note": "[1-30, 7-(4-fluorophenyl)-8-(1-methyl-1H-benzo[d]imidazol-6-yl)tetrazolo[1,5-c]pyrimidin-5-amine]", "values": [{"measurement": "IC50", "setting": "[1]", "value": "< 0.1", "unit": "µM"}]}
{"compound": "Cc1cc(-c2nc(N)c3nnnn3c2-c2ccc(F)cc2)cc(Cl)n1", "note": "[1-2, 6-(2-chloro-6-methylpyridin-4-yl)-5-(4-fluorophenyl)tetrazolo[1,5-a]pyrazin-8-amine]", "values": [{"measurement": "IC50", "setting": "[1]", "value": "> 1", "unit": "µM"}]}
{"compound": "COc1ccc(-c2nc(N)n3nnnc3c2-c2cc(Cl)nc(C(F)(F)F)c2)cc1", "note": "[1-59, 8-(2-chloro-6-(trifluoromethyl)pyridin-4-yl)-7-(4-methoxyphenyl)tetrazolo[1,5-c]pyrimidin-5-amine]", "values": [{"measurement": "IC50", "setting": "[1]", "value": "0.1 to 1", "unit": "µM"}, {"measurement": "IC50", "setting": "[2]", "value": "> 1", "unit": "µM"}]}
{"compound": "Cc1cc(-c2c(-c3cccc(F)c3)nc(N)c3nnnn23)cc(Cl)n1", "note": "[1-27, 5-(2-chloro-6-methylpyridin-4-yl)-6-(3-fluorophenyl)tetrazolo[1,5-a]pyrazin-8-amine]", "values": [{"measurement": "IC50", "setting": "[1]", "value": "0.1 to 1", "unit": "µM"}]}
{"compound": "Nc1nc(-c2ccc(F)cc2)c(-c2cc(Cl)c3nccn3c2)n2nnnc12", "note": "[1-17, 5-(8-chloroimidazo[1,2-a]pyridin-6-yl)-6-(4-fluorophenyl)tetrazolo[1,5-a]pyrazin-8-amine]", "values": [{"measurement": "IC50", "setting": "[1]", "value": "0.1 to 1", "unit": "µM"}, {"measurement": "inhibition at 10 µM", "value": "< 25", "unit": "%"}]}
{"compound": "Nc1nc(-c2ccc(F)cc2)c(-c2cc(F)c3nccn3c2)n2nnnc12", "note": "[1-14, 5-(8-fluoroimidazo[1,2-a]pyridin-6-yl)-6-(4-fluorophenyl)tetrazolo[1,5-a]pyrazin-8-amine]", "values": [{"measurement": "IC50", "setting": "[1]", "value": "0.1 to 1", "unit": "µM"}, {"measurement": "inhibition at 10 µM", "value": "< 25", "unit": "%"}]}
{"compound": "Cc1cc(-c2c(-c3ccccc3F)nc(N)c3nnnn23)cc(Cl)n1", "note": "[1-26, 5-(2-chloro-6-methylpyridin-4-yl)-6-(2-fluorophenyl)tetrazolo[1,5-a]pyrazin-8-amine]", "values": [{"measurement": "IC50", "setting": "[1]", "value": "0.1 to 1", "unit": "µM"}]}
{"compound": "N#Cc1cnc2ccc(-c3c(-c4ccc(F)cc4)nc(N)c4nnnn34)cn12", "note": "[1-22, 6-(8-amino-6-(4-fluorophenyl)tetrazolo[1,5-a]pyrazin-5-yl)imidazo[1,2-a]pyridine-3-carbonitrile]", "values": [{"measurement": "IC50", "setting": "[1]", "value": "< 0.1", "unit": "µM"}, {"measurement": "inhibition at 10 µM", "value": "< 25", "unit": "%"}]}
{"compound": "Nc1nc(-c2ccc(F)cc2)c(-c2cc3cnccc3s2)n2nnnc12", "note": "[1-16, 6-(4-fluorophenyl)-5-(thieno[3,2-c]pyridin-2-yl)tetrazolo[1,5-a]pyrazin-8-amine]", "values": [{"measurement": "IC50", "setting": "[1]", "value": "0.1 to 1", "unit": "µM"}, {"measurement": "inhibition at 10 µM", "value": "< 25", "unit": "%"}]}
{"compound": "Cc1cc(-c2c(-c3ccccc3)nc(N)c3nnnn23)cc(Cl)n1", "note": "[1-32, 5-(2-chloro-6-methylpyridin-4-yl)-6-phenyltetrazolo[1,5-a]pyrazin-8-amine]", "values": [{"measurement": "IC50", "setting": "[1]", "value": "0.1 to 1", "unit": "µM"}]}
{"compound": "Cc1cc(-c2c(-c3ccc(F)cc3)nc(N)n3nnnc23)cc(C(F)F)n1", "note": "[1-58, 8-(2-(difluoromethyl)-6-methylpyridin-4-yl)-7-(4-fluorophenyl)tetrazolo[1,5-c]pyrimidin-5-amine]", "values": [{"measurement": "IC50", "setting": "[1]", "value": "0.1 to 1", "unit": "µM"}, {"measurement": "IC50", "setting": "[2]", "value": "> 1", "unit": "µM"}]}
{"compound": "Cc1cnc2c(Cl)cc(-c3c(-c4ccc(F)cc4)nc(N)c4nnnn34)cn12", "note": "[1-24, 5-(8-chloro-3-methylimidazo[1,2-a]pyridin-6-yl)-6-(4-fluorophenyl)tetrazolo[1,5-a]pyrazin-8-amine]", "values": [{"measurement": "IC50", "setting": "[1]", "value": "0.1 to 1", "unit": "µM"}, {"measurement": "IC50", "setting": "[2]", "value": "0.1 to 1", "unit": "µM"}]}
{"compound": "Cc1nc2ccc(-c3c(-c4ccc(F)cc4)nc(N)c4nnnn34)cn2n1", "note": "[1-18, 6-(4-fluorophenyl)-5-(2-methyl-[1,2,4]triazolo[1,5-a]pyridin-6-yl)tetrazolo[1,5-a]pyrazin-8-amine]", "values": [{"measurement": "IC50", "setting": "[1]", "value": "> 1", "unit": "µM"}, {"measurement": "inhibition at 10 µM", "value": "< 25", "unit": "%"}]}
{"compound": "Cc1ccnc2ccc(-c3c(-c4cccnc4)nc(N)c4nnnn34)cc12", "note": "[1-47, 5-(4-methylquinolin-6-yl)-6-(pyridin-3-yl)tetrazolo[1,5-a]pyrazin-8-amine]", "values": [{"measurement": "IC50", "setting": "[1]", "value": "0.1 to 1", "unit": "µM"}]}
{"compound": "Cc1cc(Cl)cc(-c2c(-c3ccc(F)cc3)nc(N)c3nnnn23)c1", "note": "[1-3, 5-(3-chloro-5-methylphenyl)-6-(4-fluorophenyl)tetrazolo[1,5-a]pyrazin-8-amine]", "values": [{"measurement": "IC50", "setting": "[1]", "value": "> 1", "unit": "µM"}]}
{"compound": "Nc1nc(-c2ccc(F)cc2)c(-c2ccc3ncnn3c2)n2nnnc12", "note": "[1-8, 5-([1,2,4]triazolo[1,5-a]pyridin-6-yl)-6-(4-fluorophenyl)tetrazolo[1,5-a]pyrazin-8-amine]", "values": [{"measurement": "IC50", "setting": "[1]", "value": "> 1", "unit": "µM"}]}
{"compound": "Cn1cc(-c2c(-c3ccc(F)cc3)nc(N)c3nnnn23)ccc1=O", "note": "[1-4, 5-(8-amino-6-(4-fluorophenyl)tetrazolo[1,5-a]pyrazin-5-yl)-1-methylpyridin-2(1H)-one]", "values": [{"measurement": "IC50", "setting": "[1]", "value": "> 1", "unit": "µM"}]}
{"compound": "Cc1ccnc2ccc(-c3c(-c4ccncc4)nc(N)c4nnnn34)cc12", "note": "[1-46, 5-(4-methylquinolin-6-yl)-6-(pyridin-4-yl)tetrazolo[1,5-a]pyrazin-8-amine]", "values": [{"measurement": "IC50", "setting": "[1]", "value": "0.1 to 1", "unit": "µM"}]}
{"compound": "Nc1nc(-c2ccc(F)cc2)c(-c2ccc3ncncc3c2)n2nnnc12", "note": "[1-15, 6-(4-fluorophenyl)-5-(quinazolin-6-yl)tetrazolo[1,5-a]pyrazin-8-amine]", "values": [{"measurement": "IC50", "setting": "[1]", "value": "0.1 to 1", "unit": "µM"}, {"measurement": "inhibition at 10 µM", "value": "< 25", "unit": "%"}]}
{"compound": "N#Cc1cc(-c2c(-c3ccc(F)cc3)nc(N)n3nnnc23)cc(Cl)n1", "note": "[1-41, 4-(5-amino-7-(4-fluorophenyl)tetrazolo[1,5-c]pyrimidin-8-yl)-6-chloropicolinonitrile]", "values": [{"measurement": "IC50", "setting": "[1]", "value": "0.1 to 1", "unit": "µM"}]}
{"compound": "Cc1ccnc2ccc(-c3c(-c4cccc(C#N)c4)nc(N)c4nnnn34)cc12", "note": "[1-31, 3-(8-amino-5-(4-methylquinolin-6-yl)tetrazolo[1,5-a]pyrazin-6-yl)benzonitrile]", "values": [{"measurement": "IC50", "setting": "[1]", "value": "0.1 to 1", "unit": "µM"}]}
{"compound": "Cn1cnc2ccc(-c3c(-c4ccc(C#N)cc4)nc(N)n4nnnc34)cc21", "note": "[1-52, 4-(5-amino-8-(1-methyl-1H-benzo[d]imidazol-6-yl)tetrazolo[1,5-c]pyrimidin-7-yl)benzonitrile]", "values": [{"measurement": "IC50", "setting": "[1]", "value": "0.1 to 1", "unit": "µM"}]}
{"compound": "Cc1cn2cc(-c3c(-c4ccc(F)cc4)nc(N)c4nnnn34)cc(F)c2n1", "note": "[1-21, 5-(8-fluoro-2-methylimidazo[1,2-a]pyridin-6-yl)-6-(4-fluorophenyl)tetrazolo[1,5-a]pyrazin-8-amine]", "values": [{"measurement": "IC50", "setting": "[1]", "value": "> 1", "unit": "µM"}, {"measurement": "inhibition at 10 µM", "value": "< 25", "unit": "%"}]}
{"compound": "COc1ccc(-c2nc(N)c3nnnn3c2-c2ccc3ncn(C)c3c2)cc1", "note": "[1-53, 6-(4-methoxyphenyl)-5-(1-methyl-1H-benzo[d]imidazol-6-yl)tetrazolo[1,5-a]pyrazin-8-amine]", "values": [{"measurement": "IC50", "setting": "[1]", "value": "< 0.1", "unit": "µM"}, {"measurement": "inhibition at 10 µM", "value": "< 25", "unit": "%"}]}
{"compound": "Nc1nc(-c2ccc(F)cc2)c(-c2ccc3ncccc3c2)c2nnnn12", "note": "[1-37, 7-(4-fluorophenyl)-8-(quinolin-6-yl)tetrazolo[1,5-c]pyrimidin-5-amine]", "values": [{"measurement": "IC50", "setting": "[1]", "value": "0.1 to 1", "unit": "µM"}]}
{"compound": "Cc1cc(-c2c(-c3ccc(F)cc3)nc(N)n3nnnc23)cc(Cl)n1", "note": "[1-33, 8-(2-chloro-6-methylpyridin-4-yl)-7-(4-fluorophenyl)tetrazolo[1,5-c]pyrimidin-5-amine]", "values": [{"measurement": "IC50", "setting": "[1]", "value": "0.1 to 1", "unit": "µM"}]}
